The record followed here is patent US6284918A, “Selective inhibitors of prostaglandin endoperoxide synthase-2” (priority 1999, dated 2001).

The structures appear in SMILES notation.

For one assay, the system named is apo- and holoPGHS-2. Description: Inactivation of cyclooxygenase activity of apo- and holoPGHS-2 and reactivation by hydroxylamine. The assay is classed as biochemical, human. As to conditions: 10 mM inhibitor, pH 8, 37° C. How it is done:
Apo or HoloPGHS-2 ([…]) was inactivated with a 1000-fold excess of 2-acetoxythioanisole (2) at 22.5° C. in 100 mM Tris-HCl buffer, pH 8 containing […] phenol for the indicated time period, and then hydroxylamine (80 mM) in 10 mM Tris-HCl buffer, pH 7.5 was added as indicated by the arrow. Periodic 0.16 μM aliquots of holoPGHS-2 (open circles), holoPGHS-2+2-acetoxythioanisole (open squares), apoPGHS-2 (closed circles), apoPGHS-2+2-acetoxythioanisole (closed squares) were analyzed for remaining cyclooxygenase activity.
Oxygen consumption was measured at 37° C. with a Gilson model 5/6 oxygraph (Gilson Medical Electronics, Inc., Middleton, Wis.) equipped with a clark electrode and a thermostated cuvette. […] Oxygen uptake was initiated by the addition of 100 μM sodium arachidonate, and the initial reaction velocity was determined from the linear portion of the oxygen uptake curve.
ApoPGHS-2 (5 μM) or apoPGHS-2 (5 μM), reconstituted with 2 equivalents of hematin in 100 mM Tris-HCl, pH 8 at 37° C. containing 500 μM phenol was treated with 2-acetoxy-1-thioanisole (10 mM). Periodically, 0.16 μM enzyme aliquots were analyzed for remaining cyclooxygenase activity as described earlier. […] Hydroxylamine hydrochloride (80 mM) in 10 mM Tris-HCl, pH 7.5 was then added to the incubation mixture and 0.16 μM enzyme aliquots were analyzed for reactivation of the inhibited cyclooxygenase-2. […]

Assay [1] relates to PGHS-2 in activated RAW264.7 macrophages. Description: Inhibition of PGHS-2 in activated RAW264.7 macrophages. In kind it is cell-based, murine. As to conditions: RAW 264.7, LPS and γ-interferon; for inhibitory effect on PGHS-2 in activated macrophages compared with aspirin: FIGS. 14 and 15, aspirin 100 μM; for inhibition of cyclooxygenase activity in activated macrophages: FIG. 16. How it is done: RAW 264.7 cells were activated for 7 hours at 37° C. in serum free DMEM with LPS (500 ng/mL) and γ-interferon (10 U/mL).
RAW 264.7 cells were activated for 7 hours at 37° C. in serum free DMEM with LPS (500 ng/mL) and γ-interferon (10 U/mL). […] The cyclooxygenase reaction was initiated by adding [1-^14 C]-arachidonic acid (20 μM) for 15 min at 37° C.
The murine macrophage cell line RAW264.7 were seeded overnight for 30% confluency the following morning. Overnight DMEM and fetal bovine serum (FBS) was removed and 2 mL DMEM containing 1.5% FBS±500 ng/mL LPS and 10 units/mL interferon-γ were added for 7.5 hours at 37° C. […] Arachidonic acid metabolism was measured by adding 20 μM 14C-AA for 15 min at room temperature. Aliquots (200 μL) were removed into termination solution and run on TLC plates. In the case of 2-acetoxythioanisole (2), following 8 hours of activation, 500 μM 2 was added for the next 3.5 hours. After 11.5 hours of activation, 20 μM [1-^14 C]arachidonic acid was incubated with the cells for 20 minutes at room temperature, and total products were determined by TLC.

A further assay relates to holoPGHS-2. The experiment in a line: pH dependence of time-dependent inhibition of cyclooxygenase activity of holoPGHS-2, oxygen uptake assay. In kind it is biochemical, human. How it is done:
ApoPGHS-2 (5 μM, 1.62 μg/μL) in 100 mM sodium phosphate buffer of pH 6, 7, 8, and 9 was reconstituted with 2 equivalents of hematin. Compound 2 (1000-fold excess) in DMSO was added to the reaction mixture. Periodically, 0.16 μM enzyme aliquots (final inhibitor concentration ~178 μM) were analyzed for remaining cyclooxygenase activity. Open circles, cyclooxygenase activity of holoPGHS-2 treated with 2 at pH 6; closed circles, cyclooxygenase activity of holoPGHS-2+2 at pH 7; open squares, cyclooxygenase activity of holoPGHS-2+2 at pH 8; closed squares, cyclooxygenase activity of holoPGHS-2+2 at pH 9. Control experiments in the absence of inhibitor remained linear throughout the assay period.
ApoPGHS-2 (5 μM, 1.62 μg/μL) in 100 mM sodium phosphate buffer of pH 6, 7, 8, and 9 was reconstituted with 2 equivalents of hematin. Compound 54 (181 μM) in DMSO was added to the reaction mixture. Periodically, 0.16 μM enzyme aliquots (final inhibitor concentration ~6 μM) were analyzed for remaining cyclooxygenase activity. […]
Oxygen consumption was measured at 37° C. with a Gilson model 5/6 oxygraph (Gilson Medical Electronics, Inc., Middleton, Wis.) equipped with a clark electrode and a thermostated cuvette. […] Oxygen uptake was initiated by the addition of 100 μM sodium arachidonate, and the initial reaction velocity was determined from the linear portion of the oxygen uptake curve. […]

The next assay concerns the target T1, human PGHS-2 (Homo sapiens, UniProt P35354).
T1 construct: made in house; host or cells: insect cells (baculovirus vectors)
T1 sequence (P35354 18-604): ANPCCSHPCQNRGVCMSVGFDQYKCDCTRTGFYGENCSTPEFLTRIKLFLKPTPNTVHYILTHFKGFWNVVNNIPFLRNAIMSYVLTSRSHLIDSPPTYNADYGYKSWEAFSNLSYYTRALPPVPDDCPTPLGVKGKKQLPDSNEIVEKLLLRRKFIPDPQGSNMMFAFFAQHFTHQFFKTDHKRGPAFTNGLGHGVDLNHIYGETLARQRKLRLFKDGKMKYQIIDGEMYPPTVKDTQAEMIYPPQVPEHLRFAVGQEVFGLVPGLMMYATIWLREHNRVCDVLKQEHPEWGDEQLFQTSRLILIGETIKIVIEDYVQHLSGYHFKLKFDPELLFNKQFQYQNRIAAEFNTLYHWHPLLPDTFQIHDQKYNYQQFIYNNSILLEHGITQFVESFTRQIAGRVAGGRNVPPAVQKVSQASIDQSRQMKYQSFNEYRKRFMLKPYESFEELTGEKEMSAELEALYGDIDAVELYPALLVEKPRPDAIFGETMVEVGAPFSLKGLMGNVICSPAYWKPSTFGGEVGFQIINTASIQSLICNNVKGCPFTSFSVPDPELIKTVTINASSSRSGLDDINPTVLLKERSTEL
The experiment in a line: Time- and concentration-dependent inhibition of human PGHS-2, TLC assay (3 h preincubation). In kind it is biochemical. As to conditions: for IC50 / IC50 (PGHS-1)/IC50 (PGHS-2): Table 2; for IC50: PGHS-2 88 nM; for IC50 (PGHS-1)/IC50 (PGHS-2): selectivity ratio, 180 min. Here is the method: (§1) Cyclooxygenase activity of ovine PGHS-1 (22 nM) or human PGHS-2 (88 nM) was assayed by TLC. Reaction mixtures of 200 μL consisted of hematin-reconstituted protein in 100 mM Tris-HCl, pH 8.0, 500 μM phenol, and [1-^14 C]arachidonic acid (50 μM, 57 mCi/mmol). For the time-dependent inhibition assay, hematin-reconstituted PGHS-1 (22 nM) or PGHS-2 (88 nM) was preincubated at room temperature for 2 hours and then at 0° C. for 1 hour with varying concentrations of inhibitor in DMSO followed by the addition of [1-^14 C]arachidonic acid (50 μM) for 30 seconds at 37° C. Reactions were terminated by solvent extraction in diethyl ether/methanol/1 M citrate, pH 4.0 (30:4:1). The organic phase was spotted on a TLC plate (Amersham Corp.). The plate was developed with ethyl acetate/methylene chloride/glacial acetic acid (75:25:1) at 4° C. Radiolabeled products were quantitated with a radioactivity scanner (Bioscan, Inc., Washington, D.C.).
(§2) conducted at room temperature for 3 hours. The cyclooxygenase reaction was
(§3) initiated by the addition of 14C-arachidonic acid (50 μM) to the
(§4) incubation mixtures at 37 C for 30 seconds.
(§5) conducted at room temperature for 3 hours. The cyclooygenase reaction was
(§6) initiated by the addition of ^14 C-arachidonic acid ([…]) to the
(§7) incubation mixtures at 37° C. for 30 sec.

Assay [2] concerns the target T2, ovine PGHS-1 (Ovis aries, UniProt P05979).
T2 construct: PGHS-1 was purified from sheep seminal vesicles as described earlier; tissue Oxford Biomedical Research, Inc. (supplier of the sheep seminal vesicles); host or cells: sheep seminal vesicles
T2 sequence (P05979 25-600): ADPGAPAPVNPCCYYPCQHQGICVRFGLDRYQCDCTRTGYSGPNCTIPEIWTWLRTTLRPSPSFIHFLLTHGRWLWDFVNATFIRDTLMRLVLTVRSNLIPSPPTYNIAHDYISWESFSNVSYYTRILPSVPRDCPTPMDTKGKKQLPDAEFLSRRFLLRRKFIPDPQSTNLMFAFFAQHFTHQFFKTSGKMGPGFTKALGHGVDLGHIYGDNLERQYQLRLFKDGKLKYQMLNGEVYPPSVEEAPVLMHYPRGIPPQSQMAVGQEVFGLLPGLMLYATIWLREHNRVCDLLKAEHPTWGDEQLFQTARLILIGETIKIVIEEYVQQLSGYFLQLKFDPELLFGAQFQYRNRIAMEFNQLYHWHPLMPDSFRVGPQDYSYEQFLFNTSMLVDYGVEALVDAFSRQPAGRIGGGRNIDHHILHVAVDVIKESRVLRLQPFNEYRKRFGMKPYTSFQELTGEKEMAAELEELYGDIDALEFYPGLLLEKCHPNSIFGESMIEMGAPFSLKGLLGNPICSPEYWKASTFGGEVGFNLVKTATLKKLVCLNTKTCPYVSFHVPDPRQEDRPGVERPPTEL
The experiment in a line: Time- and concentration-dependent inhibition of ovine PGHS-1, TLC assay (3 h preincubation). The assay is classed as biochemical. As to conditions: Table 2; PGHS-1 22 nM, 3 h at room temperature. How it is done:
as §1, §2, §3, §4, §5, §6, §7

For a further assay, the system named is apoPGHS-1. Description: Inhibition of cyclooxygenase activity of apoPGHS-1 and reactivation by hydroxylamine. In kind it is biochemical, ovine.
In assay [3] the target is T2, ovine PGHS-1. The experiment in a line: Time- and concentration-dependent inhibition of ovine PGHS-1, TLC assay (3 h preincubation). In kind it is biochemical. As to conditions: FIG. 5; 1 h at room temperature.

As usually defined, the IC50 is the concentration that gives 50% inhibition. A lower IC50 goes with inhibition by little substance. `CSc1ccccc1OC(C)=O` [Compound 2, 2-acetoxythioanisole]: the “inhibition of cyclooxygenase activity” value in the assay on apo- and holoPGHS-2 is “greater than 70%”. In assay [1], the “inhibitory effect on PGHS-2 in activated macrophages compared with aspirin” value is given as “greater inhibitory effect on PGHS-2 in activated macrophages than aspirin”. Moreover, the “inhibition of cyclooxygenase activity of holoPGHS-2” value with holoPGHS-2 (FIG. 7, pH 9, 10 mM inhibitor) is reported as “greatly inhibited”. In addition, on human PGHS-2 (3 h at room temperature), the IC50 turned out to be 250 µM. Moreover, the “IC50 (PGHS-1)/IC50 (PGHS-2)” value on human PGHS-2 is reported as > 100.

As to `CCCCCCCSc1ccccc1OC(C)=O` [Compound 54, 2-Acetoxyphenylheptyl sulfide], the concentration for half-maximal inhibition (IC50) on ovine PGHS-1 [2] amounted to 6 µM. For the same compound, in assay [1], the “inhibition of cyclooxygenase activity in activated macrophages” value is listed as “greatly inhibited” and the “inhibitory effect on PGHS-2 in activated macrophages compared with aspirin” value is “greater inhibitory effect on PGHS-2 in activated macrophages than aspirin”. Also, in the assay on holoPGHS-2 (FIG. 10, pH 6, 7, 8, 9, 181 μM), the “pH dependency of inhibition of cyclooxygenase activity of human holoPGHS-2” value was “greatest inhibition seen at pH 9”. For the same compound, the “inhibition of cyclooxygenase activity of human holoPGHS-2 (in words)” value against human PGHS-2 (FIG. 9, 3 h at room temperature) was “greatly inhibited”. It took 2 µM to reach half-maximal inhibition on human PGHS-2 (3 h at room temperature) (IC50). The “IC50 (PGHS-1)/IC50 (PGHS-2)” value on human PGHS-2 is on record as 3.

Take `CCCCC#CCSc1ccccc1OC(C)=O` [Compound 87, 2-Acetoxyphenyl-hept-2-ynyl sulfide]: on ovine PGHS-1 [2], the IC50 is > 17 µM. Moreover, the “inhibition of cyclooxygenase activity in activated macrophages” value in assay [1] is on record as “greatly inhibited”. In addition, the “inhibition of cyclooxygenase activity of human holoPGHS-2 (in words)” value at human PGHS-2 (FIGS. 12 and 13, 1-16 μM) was “greatly inhibited”. For the same compound, on human PGHS-2, the “IC50 (PGHS-1)/IC50 (PGHS-2)” value turned out to be 21.

With `CC(=O)n1ccnc1` [N-acetylimidazole], the “inhibition of cyclooxygenase activity of apoPGHS-1” value in the assay with apoPGHS-1 is “inhibits the cyclooxygenase activity of apoPGHS-1”. Further, the “reactivation after addition of hydroxylamine” value in the assay with apoPGHS-1 (hydroxylamine added) is on record as “the enzyme activity is regenerated”.

`CC(=O)Oc1ccccc1C(=O)O` [aspirin]: the “inhibitory effect on PGHS-1 versus PGHS-2” value at ovine PGHS-1 [3] is “greater inhibitory effect on PGHS-1 than PGHS-2”.
